The text below walks through data of ChEMBL document CHEMBL3046053, “Synthesis, characterization and herbicidal activity of new thiazoline derivatives” (2013).

Common to all, as to type: functional
What all share (conditions): read-out: GI

Assay [1] has as its system Brassica napus. Briefly: Herbicidal activity against Brassica napus (oilseed rape) assessed as inhibition of stalk growth at 100 mg/L relative to untreated control.
Assay [2] relates to Brassica napus. The experiment in a line: Herbicidal activity against Brassica napus (oilseed rape) assessed as inhibition of root growth at 100 mg/L relative to untreated control.
For assay [3], the system named is Brassica napus. The experiment in a line: Herbicidal activity against Brassica napus (oilseed rape) assessed as inhibition of stalk growth at 10 mg/L relative to untreated control.
The test system of assay [4] is Echinochloa crus-galli. The experiment in a line: Herbicidal activity against barnyard grass Echinochloa crus-galli (barnyard grass) assessed as inhibition of root growth at 100 mg/L relative to untreated control.
Assay [5] deals with Brassica napus. Briefly: Herbicidal activity against Brassica napus (oilseed rape) assessed as inhibition of root growth at 10 mg/L relative to untreated control.
The test system of assay [6] is Echinochloa crus-galli. Briefly: Herbicidal activity against barnyard grass Echinochloa crus-galli (barnyard grass) assessed as inhibition of stalk growth at 100 mg/L relative to untreated control.
Assay [7] concerns Echinochloa crus-galli. Briefly: Herbicidal activity against barnyard grass Echinochloa crus-galli (barnyard grass) assessed as inhibition of stalk growth at 10 mg/L relative to untreated control.
Assay [8] concerns Echinochloa crus-galli. The experiment in a line: Herbicidal activity against barnyard grass Echinochloa crus-galli (barnyard grass) assessed as inhibition of root growth at 10 mg/L relative to untreated control.

Turning to `CCCC/N=c1\sc(C(=O)OCC)c(N)n1-c1ccccc1`, the inhibition of growth at 100 µg/mL stood at 39.1% in assay [1], 29.3% in assay [2], 34.4% in assay [4] and 22.6% in assay [6]. The inhibition of growth at 10 µg/mL was determined as 0% in assay [3], 0% in assay [5], 19.4% in assay [7] and 25% in assay [8].
As to `CCOC(=O)c1s/c(=N\CC/N=c2/sc(C(=O)OCC)c(N)n2-c2ccccc2)n(-c2ccccc2)c1N`, the inhibition of growth at 100 µg/mL turned out to be 52% in assay [1], 76.9% in assay [2], 58.6% in assay [4] and 34.6% in assay [6]. In addition, the inhibition of growth at 10 µg/mL in assay [3] came to 52%; in assay [5] it was 39.7%; in assay [7], 15.4%; in assay [8], 37.9%.
As to `CCOC(=O)c1s/c(=N\Cc2ccccc2)n(-c2ccccc2)c1N`, the inhibition of growth at 100 µg/mL was 92% in assay [1], 98.1% in assay [2], 83.7% in assay [4] and 44.4% in assay [6]. The inhibition of growth at 10 µg/mL was 20% in assay [3], 47.2% in assay [5], 40.7% in assay [7] and 74.4% in assay [8].
Take `CCCCCC/N=c1\sc(C(=O)OCC)c(N)n1-c1ccccc1`: the inhibition of growth at 100 µg/mL in assay [1] amounted to 89%; in assay [2], 92.5%; in assay [4], 86%; in assay [6] it was 33.3%. The inhibition of growth at 10 µg/mL in assay [3] turned out to be 64%; in assay [5], 43.4%; in assay [7], 33.3%; in assay [8], 76.7%.
Take `CCOC(=O)c1s/c(=N\c2ccccc2)n(-c2ccccc2)c1N`: the inhibition of growth at 100 µg/mL in assay [1] amounted to 64%; in assay [2] it was 71.7%; in assay [4] it was 86%; in assay [6], 43.3%. For the same compound, the inhibition of growth at 10 µg/mL in assay [3] is 52%; in assay [5] it was 37.7%; in assay [7] it was 31.6%; in assay [8], 69.8%.
With `CCOC(=O)c1s/c(=N\c2ccc(C)cc2)n(-c2ccccc2)c1N`, the inhibition of growth at 100 µg/mL in assay [1] was 44%; in assay [2], 79.2%; in assay [4], 88.4%; in assay [6] it was 49.6%. The inhibition of growth at 10 µg/mL in assay [3] amounted to 44%; in assay [5], 34%; in assay [7], 25.9%; in assay [8], 79.1%.
Regarding `CCOC(=O)c1s/c(=N\CCC/N=c2\sc(C(=O)OCC)c(N)n2-c2ccccc2)n(-c2ccccc2)c1N`, the inhibition of growth at 100 µg/mL in assay [1] was 36%; in assay [2], 41%; in assay [4], 58.6%; in assay [6], 34.6%. The inhibition of growth at 10 µg/mL in assay [3] is 12%; in assay [5] it was 7.7%; in assay [7], 3.8%; in assay [8], 31%.
On to `CCC/N=c1\sc(C(=O)OCC)c(N)n1-c1ccccc1`, for which the inhibition of growth at 100 µg/mL in assay [1] is 26.1%; in assay [2], 48%; in assay [4], 68.1%; in assay [6], 35.5%. For the same compound, the inhibition of growth at 10 µg/mL is 4.3% in assay [3], 40% in assay [5], 9.7% in assay [7] and 50% in assay [8].
As to `CCOC(=O)c1s/c(=N\CCCCCC/N=c2/sc(C(=O)OCC)c(N)n2-c2ccccc2)n(-c2ccccc2)c1N`, the inhibition of growth at 100 µg/mL in assay [1] came out at 32%; in assay [2], 50%; in assay [4] it was 69%; in assay [6], 38.5%. The inhibition of growth at 10 µg/mL in assay [3] worked out at 12%; in assay [5], 21.8%; in assay [7] it was 19.2%; in assay [8], 34.5%.
With `O=C(O)COc1ccc(Cl)cc1Cl` [2,4-DICHLOROPHENOXYACETIC ACID], the inhibition of growth at 100 µg/mL came to 91.2% in assay [1], 98% in assay [2], 97.5% in assay [4] and 43.5% in assay [6]. The inhibition of growth at 10 µg/mL was found to be 87.5% in assay [3], 88.8% in assay [5], 33.3% in assay [7] and 90% in assay [8].
Regarding `CCOC(=O)c1s/c(=N\c2ccc(Br)cc2)n(-c2ccccc2)c1N`, the inhibition of growth at 100 µg/mL in assay [1] turned out to be 72%; in assay [2], 90.6%; in assay [4], 88.4%; in assay [6], 48.1%. Moreover, the inhibition of growth at 10 µg/mL in assay [3] came to 44%; in assay [5], 32.1%; in assay [7] it was 31.6%; in assay [8] it was 76.7%.
For `CCOC(=O)c1s/c(=N\c2ccc(OC)cc2)n(-c2ccccc2)c1N`, the inhibition of growth at 100 µg/mL worked out at 92% in assay [1], 94.3% in assay [2], 90.7% in assay [4] and 61.9% in assay [6]. In addition, the inhibition of growth at 10 µg/mL in assay [3] is 66%; in assay [5], 64%; in assay [7] it was 42.2%; in assay [8], 74.4%.
Turning to `CCOC(=O)c1s/c(=N\Cc2ccccc2Cl)n(-c2ccccc2)c1N`, the inhibition of growth at 100 µg/mL came out at 34.8% in assay [1], 38.6% in assay [2], 19.4% in assay [4] and 26.5% in assay [6]. Further, the inhibition of growth at 10 µg/mL in assay [3] is -13%; in assay [5] it was -9.3%; in assay [7], 12.9%; in assay [8], 18.8%.
